Results on six molecules are retold here after ChEMBL document CHEMBL1130422, “A refined model for the somatostatin pharmacophore: conformational analysis of lanthionine-sandostatin analogs” (J Med Chem, 1997).

Where a SMILES comes first, the peptide text is derived from it. Bridges are numbered along the chain shown (N, C = ends). [ ]: non-standard residue; d: D form. d(aThr) = C[C@@H](O)[C@@H](N)C(=O)O

The first assay deals with Somatostatin receptor type 2 (Mus musculus, UniProt P30875). In words: Compound was tested for the inhibition of mSSTR2b.
Somatostatin receptor type 2, sequence (P30875 whole entry): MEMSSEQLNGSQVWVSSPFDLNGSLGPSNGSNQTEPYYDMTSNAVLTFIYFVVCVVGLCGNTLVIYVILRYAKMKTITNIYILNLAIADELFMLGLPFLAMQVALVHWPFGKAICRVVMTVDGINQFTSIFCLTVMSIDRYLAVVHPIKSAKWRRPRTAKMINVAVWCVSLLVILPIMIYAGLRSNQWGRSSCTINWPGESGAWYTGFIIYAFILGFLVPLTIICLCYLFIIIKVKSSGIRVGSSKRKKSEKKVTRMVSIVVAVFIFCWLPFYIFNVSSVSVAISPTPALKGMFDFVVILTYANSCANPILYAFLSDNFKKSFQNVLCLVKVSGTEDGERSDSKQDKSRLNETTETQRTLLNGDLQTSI
For `C[C@@H](O)[C@H](NC(=O)[C@@H]1CSSC[C@H](NC(=O)[C@H](N)Cc2ccccc2)C(=O)N[C@@H](Cc2ccccc2)C(=O)N[C@H](Cc2c[nH]c3ccccc23)C(=O)N[C@@H](CCCCN)C(=O)N[C@@H]([C@@H](C)O)C(=O)N1)C(=O)O`, the 50% inhibitory concentration (IC50) worked out at 0.28 nM.

In turn, `C[C@@H](O)[C@H](NC(=O)[C@@H]1CSC[C@H](NC(=O)[C@H](N)Cc2ccccc2)C(=O)N[C@@H](Cc2ccccc2)C(=O)N[C@H](Cc2c[nH]c3ccccc23)C(=O)N[C@@H](CCCCN)C(=O)N[C@@H]([C@@H](C)O)C(=O)N1)C(N)=O` came in with an IC50 of 15.6 nM.

The next assay deals with T1, Somatostatin receptor type 5 (Rattus norvegicus, UniProt P30938).
T1 sequence (P30938 whole entry): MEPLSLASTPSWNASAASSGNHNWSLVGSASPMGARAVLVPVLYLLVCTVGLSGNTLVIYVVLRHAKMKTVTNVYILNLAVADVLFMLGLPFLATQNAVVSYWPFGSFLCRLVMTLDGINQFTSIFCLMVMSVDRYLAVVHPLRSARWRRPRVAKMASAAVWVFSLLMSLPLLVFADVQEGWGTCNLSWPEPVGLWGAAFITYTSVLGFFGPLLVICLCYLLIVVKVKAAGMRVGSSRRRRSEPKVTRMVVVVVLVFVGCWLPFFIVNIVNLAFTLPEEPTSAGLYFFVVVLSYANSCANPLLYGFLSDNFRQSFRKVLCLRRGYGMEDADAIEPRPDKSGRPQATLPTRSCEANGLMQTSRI
In words: Compound was tested for the inhibition of rSSTR5.
Take `C[C@@H](O)[C@H]1NC(=O)[C@H](CCCCN)NC(=O)[C@@H](Cc2c[nH]c3ccccc23)NC(=O)[C@H](Cc2ccccc2)NC(=O)[C@@H](NC(=O)[C@@H](N)Cc2ccccc2)CSSC[C@H](C(=O)O)NC1=O` (H-FCF[dW]K[d(aThr)][dC]-OH; disulfide 2-7): the IC50 is 10.6 nM.

Molecule `C[C@@H](O)[C@H](NC(=O)[C@@H]1CSC[C@@H](NC(=O)[C@H](N)Cc2ccccc2)C(=O)N[C@H](Cc2ccccc2)C(=O)N[C@@H](Cc2c[nH]c3ccccc23)C(=O)N[C@H](CCCCN)C(=O)N[C@@H]([C@@H](C)O)C(=O)N1)C(N)=O` yielded a half-inhibitory concentration (IC50) of 5.5 nM.

Molecule `C[C@@H](O)[C@@H]1NC(=O)[C@@H](CCCCN)NC(=O)[C@H](Cc2c[nH]c3ccccc23)NC(=O)[C@@H](Cc2ccccc2)NC(=O)[C@H](NC(=O)[C@H](N)Cc2ccccc2)CSC[C@@H](C(=O)O)NC1=O` gave a half-inhibitory concentration (IC50) of 500 nM.

`C[C@@H](O)[C@@H](NC(=O)[C@H]1CSSC[C@H](NC(=O)[C@@H](N)Cc2ccccc2)C(=O)N[C@@H](Cc2ccccc2)C(=O)N[C@H](Cc2c[nH]c3ccccc23)C(=O)N[C@@H](CCCCN)C(=O)N[C@H]([C@@H](C)O)C(=O)N1)C(=O)O` returned an IC50 of 1.04 nM.
